Data from PubChem BioAssay AID2060610 (Molecular Pharmacology Branch, DTP, NCI, 2025).
Where “and” joins values, the source holds several entries; their conditions need not be identical. Equal entries are not always repeated.

System: 616215-338-R-J1-PDC complex spheroids, viability % test/control
Experiment: Anticancer human tumor 616215-338-R-J1-PDC patient-derived colon adenocarcinoma cell line growth inhibition [CLK]
Conditions: for viability, T/C: stronger effect = lower value
Excerpt: A high-throughput screen of multi-cell type tumor spheroids was designed to identify active combinations of […] and targeted small molecules. Complex spheroids include a stromal component modeled by human endothelial cells (HUVEC) and fibroblasts modeled by human mesenchymal stem cells (MSCs). The concentration ranges selected for each drug and investigational agent were based upon clinically achievable concentrations if the clinical Cmax of the agent was known.
Compounds. The drugs and investigational agents: cirtuvivint (SM08502; NSC835563), CC-671 (NSC850746), vemurafenib (NSC761431), tapotoclax (NSC804041), sotorasib (NSC818433), adagrasib (NSC831453), MRTX-1133 (NSC836407), BAY2416964 (NSC825713), copanlisib (NSC816437), inavolisib (NSC800729), abemaciclib (NSC768073), osimertinib (NSC779217), entinostat (NSC756642), eltanexor (KPT-8602, NSC794443), venetoclax (NSC766270), ceralasertib (NSC777638), bortezomib (NSC756655), olaparib (NSC753686), talazoparib (NSC767125), alisertib (NSC759677), peposertib (NSC802822), gemcitabine (NSC613327), 5-fluorouracil (NSC19893), SN-38 (NSC673596), oxaliplatin (NSC266046), paclitaxel (NSC125973), and doxorubicin (NSC123127), were obtained from the National Cancer Institute (NCI) Developmental Therapeutics Program Chemical Repository. The FDA-approved anticancer drug set is available from the Developmental Therapeutics Program at https://dtp.cancer.gov/organization/dscb/obtaining/available plates.htm. […] The stock solutions were prepared in dimethyl sulfoxide (DMSO, Sigma-Aldrich, St. Louis, MO, cat. D2650), except for the platinum complexes which were prepared in saline (Quality Biological, Gaithersburg, MD, cat. 114-055-101), at 800-fold the tested concentration and stored at -70 degrees C prior to their use. All drugs and investigational agents were tested over a range starting from a high concentration at or near the clinical Cmax and decreasing in half-log increments. If the clinical Cmax for an agent had not been determined, the highest concentration tested was 10 microM.
Cell Culture. All cells were maintained in an incubator at 37 degrees C and 5% CO2 with 95% humidity. The PDC lines were cultured according to standard operating procedures established by the NCI PDMR. Briefly, all PDCs were thawed and cultured in Matrigel-coated flasks prepared with a working solution of 1X Ham's F-12 nutrient mix, without supplementation (Invitrogen, Waltham, MA, cat. 11765054), 100 U/mL penicillin-streptomycin (Invitrogen, cat. 15140122), and 2.5% Matrigel (Corning Inc., Corning, NY, cat. 354248) for the first three passages. The 947758-054-R-J2-PDC line was cultured in 6B/Colon 1A media, which includes advanced DMEM/F-12 (Thermo Fisher Scientific, cat. 12634028), 10 mM HEPES (Thermo Fisher Scientific, cat. 15630080), 1X GlutaMAX supplement (Thermo Fisher Scientific, cat. 35050061), 0.1 mg/mL primocin (InvivoGen, cat. ant-pm-2), 10% defined fetal bovine serum, heat inactivated (HyClone Laboratories Inc., cat. SH30070.03HI), 1.25 mM N-Acetyl-L-cysteine (Sigma-Aldrich, cat. A9165), 10 mM nicotinamide (Sigma-Aldrich, cat. N0636), 1X B-27 supplement (Thermo Fisher Scientific, cat. 17504044), 1X N-2 supplement (Thermo Fisher Scientific, cat. 17502048), and 10 microM Y-27632 dihydrochloride (Tocris Bioscience, cat. 1254). The 876862-298-R-J1-PDC was cultured in 6E media, which includes all 6B/Colon 1A media components plus 50% L-WRN conditioned media (ATCC, cat. CRL-3276), 50 ng/mL recombinant human EGF recombinant protein (hEGF; Thermo Fisher Scientific, cat. PHG0311), 10 ng/mL recombinant human fibroblast growth factor 10 (hGFG-10; PeproTech, cat. 100-26), 1 ng/mL recombinant human fibroblast growth factor 2 (hFGF-2; PeproTech, cat. 100-18B), and 1 µM prostaglandin E2 (PGE2; Tocris, cat. 2296). The 227483-062-R1-J1-PDC line was cultured in Panc media, containing all 6E components except hFGF-2, with the addition of 500 nM SB-431542 (Selleckchem, cat. S1067) and 10 nM gastrin (Tocris, cat. 3006). […]

[1] = curve of first compound, second compound 0.0316 µM
[2] = curve of first compound, second compound 0.1 µM
[3] = curve of first compound, second compound 0.316 µM
[4] = curve of first compound, second compound 1 µM
[5] = curve of first compound, second compound 3.16 µM
[6] = curve of first compound, second compound 10 µM
[7] = second compound 0.0316 µM, first compound 0.0316 µM
[8] = second compound 0.0316 µM, first compound 0.1 µM
[9] = second compound 0.0316 µM, first compound 0.316 µM
[10] = second compound 0.0316 µM, first compound 1 µM
[11] = second compound 0.0316 µM, first compound 3.16 µM
[12] = second compound 0.0316 µM, first compound 10 µM
[13] = second compound 0.1 µM, first compound 0.0316 µM
[14] = second compound 0.1 µM, first compound 0.1 µM
[15] = second compound 0.1 µM, first compound 0.316 µM
[16] = second compound 0.1 µM, first compound 1 µM
[17] = second compound 0.1 µM, first compound 3.16 µM
[18] = second compound 0.1 µM, first compound 10 µM
[19] = second compound 0.316 µM, first compound 0.0316 µM
[20] = second compound 0.316 µM, first compound 0.1 µM
[21] = second compound 0.316 µM, first compound 0.316 µM
[22] = second compound 0.316 µM, first compound 1 µM
[23] = second compound 0.316 µM, first compound 3.16 µM
[24] = second compound 0.316 µM, first compound 10 µM
[25] = second compound 1 µM, first compound 0.0316 µM
[26] = second compound 1 µM, first compound 0.1 µM
[27] = second compound 1 µM, first compound 0.316 µM
[28] = second compound 1 µM, first compound 1 µM
[29] = second compound 1 µM, first compound 3.16 µM
[30] = second compound 1 µM, first compound 10 µM
[31] = second compound 3.16 µM, first compound 0.0316 µM
[32] = second compound 3.16 µM, first compound 0.1 µM
[33] = second compound 3.16 µM, first compound 0.316 µM
[34] = second compound 3.16 µM, first compound 1 µM
[35] = second compound 3.16 µM, first compound 3.16 µM
[36] = second compound 3.16 µM, first compound 10 µM
[37] = second compound 10 µM, first compound 0.0316 µM
[38] = second compound 10 µM, first compound 0.1 µM
[39] = second compound 10 µM, first compound 0.316 µM
[40] = second compound 10 µM, first compound 1 µM
[41] = second compound 10 µM, first compound 3.16 µM
[42] = second compound 10 µM, first compound 10 µM
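Further: spheroids exposed to agents for 7 days.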
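Wherever viability, T/C is given: 100% = DMSO vehicle wells.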

COc1c(OCCCN2CCOCC2)ccc2c3n(c(=NC(=O)c4cnc(N)nc4)nc12)CCN3
viability, T/C (compound 0.00316 µM): 101% and 89.7%
viability, T/C (compound 0.01 µM): 111% and 96.4%
viability, T/C (compound 0.0316 µM): 106% and 114%
viability, T/C (compound 0.1 µM): 57.7% and 74.8%
viability, T/C (compound 0.316 µM): 36.1% and 46%
viability, T/C (compound 1 µM): 29% and 39.8%
IC50 (curve of compound): 143 nM and 245 nM

Nc1ccccc1NC(=O)c1ccc(CNC(=O)OCc2cccnc2)cc1 + CN1CCN(c2cc(C(=O)Nc3cc4cc(-c5cnn(C)c5)ccc4cn3)ccn2)CC1
IC50 [1]: 4240 nM
IC50 [2]: 2540 nM
IC50 [3]: < 31.6 nM
IC50 [4]: < 31.6 nM
IC50 [5]: < 31.6 nM
IC50 [6]: < 31.6 nM
viability, T/C [7]: 95%
viability, T/C [8]: 95.3%
viability, T/C [9]: 110%
viability, T/C [10]: 118%
viability, T/C [11]: 62.7%
viability, T/C [12]: 12.6%
viability, T/C [13]: 110%
viability, T/C [14]: 123%
viability, T/C [15]: 118%
viability, T/C [16]: 119%
viability, T/C [17]: 34.1%
viability, T/C [18]: 8.04%
viability, T/C [19]: 26.6%
viability, T/C [20]: 31.3%
viability, T/C [21]: 20.9%
viability, T/C [22]: 18.9%
viability, T/C [23]: 3.92%
viability, T/C [24]: 2.67%
viability, T/C [25]: 0.16%
viability, T/C [26]: 0.17%
viability, T/C [27]: 2.95%
viability, T/C [28]: 0.09%
viability, T/C [29]: 3.76%
viability, T/C [30]: 3.49%
viability, T/C [31]: 0.1%
viability, T/C [32]: 0.71%
viability, T/C [33]: 0.63%
viability, T/C [34]: 0.09%
viability, T/C [35]: 1.87%
viability, T/C [36]: 1.46%
viability, T/C [37]: 0.08%
viability, T/C [38]: 0.52%
viability, T/C [39]: 3.6%
viability, T/C [40]: 0.17%
viability, T/C [41]: 0.18%
viability, T/C [42]: 2.22%

COC1C=CCC(C)C(C)S(=O)(=O)NC(=O)c2ccc3c(c2)N(CC2CCC21)CC1(CCCc2cc(Cl)ccc21)CO3 (stereo unspecified) + CNC(=O)c1ccc(Nc2nc(OC3CCCC3)c3c(-c4ccc5nc(C)oc5c4)c[nH]c3n2)c(OC)c1
IC50 [1]: > 10000 nM
IC50 [2]: 4640 nM
IC50 [3]: < 31.6 nM
IC50 [4]: < 31.6 nM
IC50 [5]: < 31.6 nM
IC50 [6]: < 31.6 nM
viability, T/C [7]: 95.9%
viability, T/C [8]: 95.1%
viability, T/C [9]: 94%
viability, T/C [10]: 86.2%
viability, T/C [11]: 104%
viability, T/C [12]: 52.3%
viability, T/C [13]: 56.5%
viability, T/C [14]: 57%
viability, T/C [15]: 57.6%
viability, T/C [16]: 60.9%
viability, T/C [17]: 59%
viability, T/C [18]: 34%
viability, T/C [19]: 37.2%
viability, T/C [20]: 43.9%
viability, T/C [21]: 33%
viability, T/C [22]: 25.7%
viability, T/C [23]: 19.6%
viability, T/C [24]: 20.4%
viability, T/C [25]: 35.1%
viability, T/C [26]: 39.7%
viability, T/C [27]: 34.3%
viability, T/C [28]: 26.4%
viability, T/C [29]: 21.5%
viability, T/C [30]: 17.1%
viability, T/C [31]: 41.6%
viability, T/C [32]: 41%
viability, T/C [33]: 34.5%
viability, T/C [34]: 27.2%
viability, T/C [35]: 22.8%
viability, T/C [36]: 20.3%
viability, T/C [37]: 40.7%
viability, T/C [38]: 33.7%
viability, T/C [39]: 29.8%
viability, T/C [40]: 26.5%
viability, T/C [41]: 19.6%
viability, T/C [42]: 17.3%
